The source of these data is ChEMBL document CHEMBL6134804, “Identifying thiourea-based hybrids of quinazoline and oxospirochromane as inhibitors of Plasmodium cysteine proteases arresting the parasitic growth at the early trophozoite stage” (Bioorg Med Chem Lett, 2025).

In general, pIC50 refers to −log10 of the IC50, conventionally taken in molar units. As usually defined, the IC50 is the concentration that inhibits the measured activity by half.

The nature of data set [1]: Inhibition of Plasmodium falcipain-2 using Z-Leu-Arg-AMC as substrate preincubated for 30 mins followed by substrate addition and measured after 30 mins by microtiter plate spectrofluorimeteric analysis.
Data set [2] in a line: Inhibition of Plasmodium falcipain-3 using Z-Leu-Arg-AMC as substrate preincubated for 30 mins followed by substrate addition and measured after 30 mins by microtiter plate spectrofluorimeteric analysis.
Data set [3] concerns Plasmodium falciparum. Kind of data set: Antiplasmodial activity against sorbitol-synchronized ring stage chloroquine resistant Plasmodium falciparum W2 infected in human erythrocytes assessed as parasitic growth inhibition incubated for 48 to 50 hrs by SYBR Green 1 based microtiter plate spectrofluorimeteric analysis. It is filed as functional, organism-based. Conditions: W2, Erythrocyte.

The subject of data set [4] is Plasmodium falciparum. The data set can be described thus: Antiplasmodial activity against sorbitol-synchronized ring stage chloroquine sensitive Plasmodium falciparum 3D7 infected in human erythrocytes assessed as parasitic growth inhibition incubated for 48 to 50 hrs by SYBR Green 1 based microtiter plate spectrofluorimeteric analysis. To be noted: 3D7, Erythrocyte. The format is functional, organism-based.

Data set [5] in a line: Selectivity index, ratio of IC50 for cytotoxicity against African green monkey Vero cells to antiplasmodial activity against sorbitol-synchronized ring stage chloroquine resistant Plasmodium falciparum W2 infected in human erythrocytes. It is filed as toxicity, cell-based. Conditions: read-out: Ratio IC50.
Data set [6] is described as follows: Cytotoxicity against African green monkey Vero cells assessed as reduction in cell viability incubated for 72 hrs by MTT assay. It is filed as toxicity, cell-based. Conditions: African green monkey (Chlorocebus sabaeus). (Formazan colour is commonly taken as a measure of viable cells.)
Data set [7] can be described thus: Selectivity index, ratio of IC50 for cytotoxicity against human […] cells to antiplasmodial activity against sorbitol-synchronized ring stage chloroquine resistant Plasmodium falciparum W2 infected in human erythrocytes. To be noted: read-out: Ratio IC50. The format is cell-based.
Data set [8] relates to Plasmodium falciparum. Kind of data set: Antiplasmodial activity against ring-stage Plasmodium falciparum assessed as enlarged feeding vacuoles with hemoglobin accumulation at 3 times IC50 concentration measured after 48 hrs by Giemsa staining based analysis. It is filed as functional, organism-based.
A short description of data set [9]: Selectivity index, ratio of IC50 for cytotoxicity against human […] cells to antiplasmodial activity against sorbitol-synchronized ring stage chloroquine sensitive Plasmodium falciparum 3D7 infected in human erythrocytes. The format is cell-based. To be noted: read-out: Ratio IC50.
Data set [10] is described as follows: Hemolytic activity in human Red blood cells assessed as hemolysis at 100 uM incubated for 2 hrs by spectrofluorimetric analysis. The format is toxicity, cell-based. Conditions: erythrocyte.
A short description of data set [11]: Resistance index, ratio of IC50 for antiplasmodial activity against chloroquine sensitive Plasmodium falciparum 3D7 infected in human erythrocytes to antiplasmodial activity against chloroquine resistant Plasmodium falciparum W2 infected in human erythrocytes. The format is functional.
In another data set the test system is A549. Kind of data set: Cytotoxicity against human A549 cells assessed as inhibition of cell growth incubated for 24 hrs by MTT assay. It is filed as functional, cell-based. Conditions: A549, 24 h.
A short description of data set [12]: Selectivity index, ratio of IC50 for cytotoxicity against African green monkey Vero cells to antiplasmodial activity against sorbitol-synchronized ring stage chloroquine sensitive Plasmodium falciparum 3D7 infected in human erythrocytes. The format is toxicity, cell-based. Conditions: read-out: Ratio IC50.
For data set [13], the system named is Plasmodium falciparum. Kind of data set: Antiplasmodial activity against ring-stage Plasmodium falciparum assessed as reduction in formation of new rings at 3 times IC50 concentration measured after 48 hrs by Giemsa staining based analysis. It is filed as functional, organism-based.
Data set [14] relates to Plasmodium falciparum. Kind of data set: Antiplasmodial activity against ring stage of Plasmodium falciparum assessed as developmental arrest at early trophozoite stage at 3 times IC50 concentration measured after 48 hrs by Giemsa staining based analysis. The format is functional, organism-based.
A short description of data set [15]: Inhibition of Plasmodium falciparum ATP4.

pIC50: −log10 of the molar value. The source made the active and inactive calls. No cut-off for these calls is given here.

Turning to `CC(C)C[C@H](NC(=O)[C@@H]1O[C@H]1C(=O)O)C(=O)NCCCCN=C(N)N`, the pIC50 in data set [1] is 7.26; in data set [2], 6.93.

For `COc1ccc(NC(=S)N2CCN(c3nc(N4CCC5(CC4)CC(=O)c4ccccc4O5)c4ccccc4n3)CC2)cc1`, the values for the pIC50 with Plasmodium falciparum [3] and with Plasmodium falciparum [4] were less than 4.82 and 4.63, respectively.

Turning to `O=C1CC2(CCN(c3nc(N4CCN(C(=S)Nc5cccc(C(F)(F)F)c5)CC4)nc4ccccc34)CC2)Oc2ccccc21`, the results for the pIC50 with Plasmodium falciparum [3] and in the data set on Plasmodium falciparum [4] were less than 4.82 and 5.10, respectively.

Regarding `Cc1cccc(C)c1NC(=S)N1CCN(c2nc(N3CCC4(CC3)CC(=O)c3ccccc3O4)c3ccccc3n2)CC1`, the pIC50 in data set [1] is 5.23; with Plasmodium falciparum [3], 5.15; in data set [2] it was 5.19; with A549, 3.99; in the data set with Plasmodium falciparum [4], 5.32. In addition, the selectivity ratio was greater than 140 in data set [5], 14.3 in data set [7], 21 in data set [9] and greater than 207 in data set [12]. In [6], the IC50 at 72 h is greater than 1000 µM. The result with Plasmodium falciparum [8], in the data set with Plasmodium falciparum [13] and in the data set on Plasmodium falciparum [14] was Active. In addition, the Activity entry in [10] was “Non-toxic”. In addition, the “Ratio IC50” value in data set [11] is given as 0.68.

`O=C1CC2(CCN(c3nc(N4CCN(C(=S)Nc5ccc(OC(F)(F)F)cc5)CC4)nc4ccccc34)CC2)Oc2ccccc21`: the negative logarithm of the IC50 (pIC50) was less than 4.82 with Plasmodium falciparum [3] and 5.41 in the data set on Plasmodium falciparum [4].

As for `O=C1CC2(CCN(c3nc(N4CCN(C(=S)Nc5ccc(F)cc5F)CC4)nc4ccccc34)CC2)Oc2ccccc21`, the pIC50 is less than 4.82 in the data set with Plasmodium falciparum [3] and 5.28 with Plasmodium falciparum [4].

For `CCc1nc(N)nc(N)c1-c1ccc(Cl)cc1` [PYRIMETHAMINE], the pIC50 with Plasmodium falciparum [3] is 6.89.

With `Cc1ccc(NC(=S)N2CCN(c3nc(N4CCC5(CC4)CC(=O)c4ccccc4O5)c4ccccc4n3)CC2)cc1`, the pIC50 in the data set on Plasmodium falciparum [3] is less than 4.82; in the data set with Plasmodium falciparum [4] it was 4.79.

Take `O=C1CC2(CCN(c3nc(N4CCN(C(=S)Nc5ccccc5Cl)CC4)nc4ccccc34)CC2)Oc2ccccc21`: the negative logarithm of the IC50 (pIC50) in [1] was 5.34; with Plasmodium falciparum [3] it was 5.35; in data set [2], 5.23; in the data set on A549 it was 4.17; with Plasmodium falciparum [4], 5.40. Moreover, the selectivity ratio in data set [5] was greater than 226; in [7], 15.2; in [9] it was 16.9; in [12], greater than 251. In addition, the IC50 at 72 h in [6] is greater than 1000 µM. In addition, the result in the data set with Plasmodium falciparum [8], with Plasmodium falciparum [13] and in the data set with Plasmodium falciparum [14] was Active. Further, the Activity entry in data set [10] is given as “Non-toxic”. The “Ratio IC50” value in [11] is recorded as 0.9.

For the compound `O=C1CC2(CCN(c3nc(N4CCN(C(=S)Nc5ccc(F)cc5)CC4)nc4ccccc34)CC2)Oc2ccccc21`, the pIC50 was 4.94 in data set [1]; 5.05 in the data set with Plasmodium falciparum [3]; 4.84 in [2]; 3.51 in the data set on A549; 5.33 with Plasmodium falciparum [4]. Besides, the selectivity ratio was greater than 111 in [5], 34.1 in data set [7], 65.8 in data set [9] and greater than 215 in data set [12]. In [6], the IC50 at 72 h was greater than 1000 µM. The “Ratio IC50” value in [11] is 0.52.

As for `O=C1CC2(CCN(c3nc(N4CCN(C(=S)NCc5ccccc5)CC4)nc4ccccc34)CC2)Oc2ccccc21`, the pIC50 is 4.98 in [1]; 4.84 in the data set with Plasmodium falciparum [3]; 4.97 in data set [2]; 3.67 with A549; 5.32 with Plasmodium falciparum [4]. Besides, the selectivity ratio in [5] is greater than 69.6; in data set [7], 14.9; in data set [9], 44.7; in data set [12], greater than 209. Further, the IC50 at 72 h in data set [6] is greater than 1000 µM. Further, the “Ratio IC50” value in data set [11] is reported as 0.33.

Consider `O=C1CC2(CCN(c3nc(N4CCN(C(=S)Nc5ccc(F)c(Cl)c5)CC4)nc4ccccc34)CC2)Oc2ccccc21`, for which the pIC50 in data set [1] was 5.41; with Plasmodium falciparum [3], 5.45; in [2], 5.31; with A549, 4.23; with Plasmodium falciparum [4], 5.50. The selectivity ratio in data set [5] is greater than 281; in [7] it was 16.4; in data set [9] it was 18.3; in data set [12], greater than 314. Further, the IC50 at 72 h in data set [6] is greater than 1000 µM. Also, the outcome in the data set with Plasmodium falciparum [8], in the data set with Plasmodium falciparum [13] and in the data set on Plasmodium falciparum [14] was Active. In addition, in data set [10], the Activity entry is reported as “Non-toxic”. Also, in [11], the “Ratio IC50” value is 0.89.

`O=C1CC2(CCN(c3nc(N4CCN(C(=S)Nc5ccccc5)CC4)nc4ccccc34)CC2)Oc2ccccc21`: the pIC50 in the data set on Plasmodium falciparum [3] was less than 4.82; in the data set with Plasmodium falciparum [4], 4.61.

Take `COc1cccc(NC(=S)N2CCN(c3nc(N4CCC5(CC4)CC(=O)c4ccccc4O5)c4ccccc4n3)CC2)c1`: the pIC50 in the data set with Plasmodium falciparum [3] was 5.41; in the data set on Plasmodium falciparum [4] it was 5.25. The “Ratio IC50” value in [11] amounted to 1.47.

For the compound `O=C1CC2(CCN(c3nc(N4CCN(C(=S)Nc5ccc(Br)cc5)CC4)nc4ccccc34)CC2)Oc2ccccc21`, the pIC50 is 5.32 in the data set with Plasmodium falciparum [3] and 5.14 in the data set on Plasmodium falciparum [4]. Moreover, the “Ratio IC50” value in data set [11] was 1.51.

In turn, `C[C@H]1Cc2c([nH]c3cc(Cl)c(F)cc23)[C@@]2(N1)C(=O)Nc1ccc(Cl)cc12` [CIPARGAMIN] gave a pIC50 in data set [15] of 9.00.

Regarding `O=C1CC2(CCN(c3nc(N4CCN(C(=S)Nc5ccc(F)c(F)c5)CC4)nc4ccccc34)CC2)Oc2ccccc21`, the pIC50 was less than 4.82 in the data set on Plasmodium falciparum [3] and 4.75 in the data set with Plasmodium falciparum [4].

With `O=C1CC2(CCN(c3nc(N4CCN(C(=S)Nc5cccc(Cl)c5)CC4)nc4ccccc34)CC2)Oc2ccccc21`, the pIC50 in the data set on Plasmodium falciparum [3] was less than 4.82; with Plasmodium falciparum [4] it was 5.20.

Turning to `COc1ccccc1NC(=S)N1CCN(c2nc(N3CCC4(CC3)CC(=O)c3ccccc3O4)c3ccccc3n2)CC1`, the pIC50 was 5.27 in data set [1]; 5.29 in the data set with Plasmodium falciparum [3]; 5.21 in data set [2]; 4.08 in the data set with A549; 5.47 in the data set on Plasmodium falciparum [4]. The selectivity ratio is greater than 195 in data set [5], 16.1 in data set [7], 24.1 in [9] and greater than 292 in data set [12]. Moreover, the IC50 at 72 h in data set [6] is greater than 1000 µM. Besides, the outcome with Plasmodium falciparum [8], with Plasmodium falciparum [13] and in the data set with Plasmodium falciparum [14] was Active. Further, the Activity result in data set [10] was “Non-toxic”. In addition, the “Ratio IC50” value in data set [11] stood at 0.66.
